From US20230203098A1, “HUMAN TRANSFERRIN RECEPTOR BINDING PEPTIDE” (priority 2020, published 2023)
Where two headings read alike, the source gives them in different places. One block for each compound: values may come before it. Where a SMILES comes first, the peptide text is derived from it. Bridges are numbered along the chain shown (N, C = ends). [ ]: non-standard residue; d: D form. PEG12 = NCCOCCOCCOCCOCCOCCOCCOCCOCCOCCOCCOCCOCCC(=O)O; Phe(3,4-(OMe)2) = COc1ccc(C[C@H](N)C(=O)O)cc1OC; NMePhe(3-Cl) = CN[C@@H](Cc1cccc(Cl)c1)C(=O)O; NMeW = CN[C@@H](Cc1c[nH]c2ccccc12)C(=O)O; Lys(N3) = [N-]=[N+]=NCCCC[C@H](N)C(=O)O; NMeY = CN[C@@H](Cc1ccc(O)cc1)C(=O)O; NMeF = CN[C@@H](Cc1ccccc1)C(=O)O; PEG4 = NCCOCCOCCOCCOCCC(=O)O; Dap = NC[C@H](N)C(=O)O

Target: transferrin receptor (hTfR) (Homo sapiens, UniProt P02786)
Assay: Intermolecular interaction evaluation test between transferrin receptor (hTfR) and peptide by surface plasmon resonance (SPR)
Assay type: binding
Outline: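 hTfR captured on Ni-NTA chip then amine-coupled; peptides run single-cycle kinetics at 5–100 nM in 10 mM HEPES pH 8.0, 150 mM NaCl, 0.05% Tween 20, 0.1% BSA, 1.0% DMSO. KD from least-squares curve fitting of sensorgrams.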

[1] = SPR, hTfR No. 894 variants with PEG12c linker (Table 2), read-out: KD
[2] = surface plasmon resonance, peptide vs hTfR, read-out: KD value, hTfR binding by SPR (class symbol)
[3] = surface plasmon resonance, hTfR, read-out: KD value for hTfR by SPR (class symbol)
[4] = hTfR binding by SPR, hTfR No. 894 variant peptides, linker-added peptides and payload conjugates (Table 2), read-out: KD value obtained from the SPR measurement

transferrin receptor (hTfR), sequence (P02786 whole entry): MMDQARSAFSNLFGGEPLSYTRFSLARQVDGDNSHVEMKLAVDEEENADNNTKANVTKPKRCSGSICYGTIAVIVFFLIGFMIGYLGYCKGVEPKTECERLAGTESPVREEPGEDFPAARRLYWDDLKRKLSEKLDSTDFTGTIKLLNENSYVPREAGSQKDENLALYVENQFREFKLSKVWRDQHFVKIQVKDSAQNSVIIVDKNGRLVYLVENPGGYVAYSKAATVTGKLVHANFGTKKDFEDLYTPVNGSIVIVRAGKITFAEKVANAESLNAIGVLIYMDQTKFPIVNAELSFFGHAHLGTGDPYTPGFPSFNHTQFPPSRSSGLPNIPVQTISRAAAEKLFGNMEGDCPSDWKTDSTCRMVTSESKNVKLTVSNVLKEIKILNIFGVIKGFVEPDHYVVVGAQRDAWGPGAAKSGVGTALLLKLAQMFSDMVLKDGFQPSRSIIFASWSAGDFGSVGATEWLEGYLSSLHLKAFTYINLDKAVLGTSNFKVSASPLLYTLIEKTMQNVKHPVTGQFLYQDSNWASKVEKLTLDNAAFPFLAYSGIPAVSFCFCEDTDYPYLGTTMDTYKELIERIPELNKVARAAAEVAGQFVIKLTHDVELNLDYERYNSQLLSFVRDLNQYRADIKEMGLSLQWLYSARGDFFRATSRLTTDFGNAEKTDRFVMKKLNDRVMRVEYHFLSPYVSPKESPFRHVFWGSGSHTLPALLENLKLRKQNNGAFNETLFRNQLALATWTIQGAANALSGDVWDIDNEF

Kd [1]: 1 to 100 nM
SMILES: CC[C@H](C)[C@@H]1NC(=O)[C@H](Cc2ccc(O)cc2)NC(=O)[C@H](Cc2ccccc2)NC(=O)[C@H](CC(N)=O)NC(=O)[C@H](Cc2c[nH]c3ccccc23)NC(=O)[C@H](C(C)C)NC(=O)[C@H](Cc2ccccc2)N(C)C(=O)[C@H](C(C)C)NC(=O)[C@H](C)NC(=O)CSC[C@@H](C(=O)NCCOCCOCCOCCOCCOCCOCCOCCOCCOCCOCCOCCOCCC(N)=O)NC(=O)[C@H](Cc2ccc(O)cc2)N(C)C(=O)[C@H](Cc2ccc(O)cc2)NC(=O)[C@H](CCCNC(=N)N)NC(=O)[C@H](CCCNC(=N)N)NC(=O)[C@H]([C@@H](C)CC)NC1=O [compound 135] ({CH2CO}-AV[NMeF]VWNFYIIRRY[NMeY]C[PEG12]-NH2; thioether N-15)

Kd (SPR, hTfR, class symbols A-D, read-out: KD (column without head, continuation of the table series)): < 1 nM
SMILES: CC[C@H](C)[C@@H]1NC(=O)[C@H](Cc2ccc(OC)cc2)NC(=O)[C@H](Cc2ccc(O)cc2)NC(=O)[C@H](CC(N)=O)NC(=O)[C@H](Cc2c[nH]c3ccccc23)NC(=O)[C@H](C(C)C)NC(=O)[C@H](Cc2cccc(Cl)c2)N(C)C(=O)[C@H](C(C)C)NC(=O)[C@H](C)NC(=O)CSC[C@@H](C(=O)NCCOCCOCCOCCOCCC(N)=O)NC(=O)[C@H](Cc2ccc(O)cc2)N(C)C(=O)[C@H](Cc2ccccc2)NC(=O)[C@H](CCCNC(=N)N)NC(=O)[C@H](CCCNC(=N)N)NC(=O)[C@H]([C@@H](C)CC)NC1=O [compound 502]

Kd (binding to hTfR by SPR, Table 2 peptides, read-out: KD value (SPR) class): 1 to 100 nM
SMILES: CC[C@H](C)[C@@H]1NC(=O)[C@H](Cc2ccc(O)cc2)NC(=O)[C@H](Cc2ccc(O)cc2)NC(=O)[C@H](CC(N)=O)NC(=O)[C@H](Cc2cn(CCO)c3ccccc23)NC(=O)[C@H](C(C)C)NC(=O)[C@H](Cc2ccccc2)N(C)C(=O)[C@H](C(C)C)NC(=O)[C@H](C)NC(=O)CSC[C@@H](C(N)=O)NC(=O)[C@H](Cc2ccc(O)cc2)N(C)C(=O)[C@H](Cc2ccc(O)cc2)NC(=O)[C@H](CCCNC(=N)N)NC(=O)[C@H](CCCNC(=N)N)NC(=O)[C@H]([C@@H](C)CC)NC1=O [compound 271]

Kd [2]: 1 to 100 nM
SMILES: CC[C@H](C)[C@@H]1NC(=O)[C@H](Cc2ccc(OC)cc2)NC(=O)[C@H](Cc2ccc(O)cc2)NC(=O)[C@H](CC(N)=O)NC(=O)[C@H](Cc2c[nH]c3ccccc23)NC(=O)[C@H](C(C)C)NC(=O)[C@H](Cc2cccc(Cl)c2)N(C)C(=O)[C@H](C(C)C)NC(=O)[C@H](C)NC(=O)CSC[C@@H](C(=O)NCC(=O)NCC(=O)N[C@@H](CO)C(=O)NCC(=O)N[C@@H](CO)C(=O)NCC(=O)N[C@@H](CCCCN=[N+]=[N-])C(N)=O)NC(=O)[C@H](Cc2ccc(O)cc2)N(C)C(=O)[C@H](Cc2ccccc2)NC(=O)[C@@H](CCCCN)NC(=O)[C@H](CCCNC(=N)N)NC(=O)[C@H]([C@@H](C)CC)NC1=O [compound 313]

Kd [3]: 1 to 100 nM
SMILES: CC[C@H](C)[C@@H]1NC(=O)[C@H](Cc2ccc(OC)cc2)NC(=O)[C@H](Cc2ccc(O)cc2)NC(=O)[C@H](CC(N)=O)NC(=O)[C@H](Cc2c[nH]c3ccccc23)N(C)C(=O)[C@H](C(C)C)NC(=O)[C@H](Cc2cccc(Cl)c2)N(C)C(=O)[C@H](C(C)C)NC(=O)[C@H](C)NC(=O)CSC[C@@H](C(=O)NCC(=O)NCC(=O)NCC(=O)NCC(=O)N[C@@H](CO)C(=O)N[C@@H](CO)C(=O)N[C@@H](CS)C(N)=O)NC(=O)[C@H](Cc2ccc(O)cc2)N(C)C(=O)[C@H](Cc2ccccc2)NC(=O)[C@@H](CCCCN)NC(=O)[C@H](CCCNC(=N)N)NC(=O)[C@H]([C@@H](C)CC)NC1=O [compound 407]

Kd [4]: 1 to 100 nM
SMILES: CC[C@H](C)[C@@H]1NC(=O)[C@H](Cc2ccc(O)cc2)NC(=O)[C@H](Cc2ccc(O)cc2)NC(=O)[C@H](CC(N)=O)NC(=O)[C@H](Cc2c[nH]c3ccccc23)NC(=O)[C@H](C(C)C)NC(=O)[C@H](Cc2ccccc2)N(C)C(=O)[C@H](C(C)C)NC(=O)[C@H](C)NC(=O)CSC[C@@H](C(=O)NCC(=O)NCC(=O)N[C@@H](CO)C(=O)NCC(=O)N[C@@H](CO)C(=O)N[C@@H](CO)C(=O)NCC(=O)N[C@@H](CO)C(=O)N[C@@H](CO)C(=O)N[C@@H](CCCCNC(=O)C2CCC(CN3C(=O)C=CC3=O)CC2)C(N)=O)NC(=O)[C@H](Cc2ccc(O)cc2)N(C)C(=O)[C@H](Cc2ccc(O)cc2)NC(=O)[C@H](CCCNC(=N)N)NC(=O)[C@H](CCCNC(=N)N)NC(=O)[C@H]([C@@H](C)CC)NC1=O (stereo partly shown) [compound 189]

Kd [3]: 1 to 100 nM
SMILES: CC[C@H](C)[C@@H]1NC(=O)[C@H](Cc2ccc(OC)cc2)NC(=O)[C@H](Cc2ccc(O)cc2)NC(=O)[C@H](CC(N)=O)NC(=O)[C@H](Cc2c[nH]c3ccccc23)N(C)C(=O)[C@H](C(C)C)NC(=O)[C@H](Cc2cccc(Cl)c2)N(C)C(=O)[C@H](C(C)C)NC(=O)[C@H](C)NC(=O)CSC[C@@H](C(=O)NCC(=O)NCC(=O)N[C@@H](CO)C(=O)NCC(=O)N[C@@H](CO)C(=O)NCC(=O)N[C@@H](CCCCN=[N+]=[N-])C(N)=O)NC(=O)[C@H](Cc2ccc(O)cc2)N(C)C(=O)[C@H](Cc2ccccc2)NC(=O)[C@@H](CCCCN)NC(=O)[C@H](CCCNC(=N)N)NC(=O)[C@H]([C@@H](C)CC)NC1=O [compound 406] ({CH2CO}-AV[NMePhe(3-Cl)]V[NMeW]NYY(Me)IIR[dK]F[NMeY]CGGSGSG[Lys(N3)]-NH2; thioether N-15)

Kd [3]: 1 to 100 nM
SMILES: CC[C@H](C)[C@@H]1NC(=O)[C@H](Cc2ccc(O)cc2)NC(=O)[C@H](Cc2ccc(O)cc2)NC(=O)[C@H](CC(N)=O)NC(=O)[C@H](Cc2c[nH]c3ccccc23)N(C)C(=O)[C@H](C(C)C)NC(=O)[C@H](Cc2cccc(Cl)c2)N(C)C(=O)[C@@H]2CCCC(=O)NCCCCC[C@H](NC(=O)[C@H]([C@@H](C)CC)NC1=O)C(=O)N[C@@H](CCCNC(=N)N)C(=O)N[C@@H](Cc1ccc(O)cc1)C(=O)N(C)[C@@H](Cc1ccc(O)cc1)C(=O)N[C@H](C(N)=O)CSCC(=O)N[C@@H](C)C(=O)N2 [compound 410]

Kd [2]: 1 to 100 nM
SMILES: CC[C@H](C)[C@@H]1NC(=O)[C@H](Cc2ccc(OC)c(OC)c2)NC(=O)[C@H](Cc2ccc(O)cc2)NC(=O)[C@H](CC(N)=O)NC(=O)[C@H](Cc2c[nH]c3ccccc23)N(C)C(=O)[C@H](C(C)C)NC(=O)[C@H](Cc2cccc(Cl)c2)N(C)C(=O)[C@H](C(C)C)NC(=O)[C@H](C)NC(=O)CSC[C@@H](C(N)=O)NC(=O)[C@H](Cc2ccc(O)cc2)N(C)C(=O)[C@H](Cc2ccccc2)NC(=O)[C@@H](CCCNC(=N)N)NC(=O)[C@H](CCCNC(=N)N)NC(=O)[C@H]([C@@H](C)CC)NC1=O [compound 318] ({CH2CO}-AV[NMePhe(3-Cl)]V[NMeW]NY[Phe(3,4-(OMe)2)]IIR[dR]F[NMeY]C-NH2; thioether N-15)

Kd [3]: 1 to 100 nM
SMILES: CC[C@H](C)[C@@H]1NC(=O)[C@H](Cc2ccc(OC)cc2)NC(=O)[C@H](Cc2ccc(O)cc2)NC(=O)[C@H](CC(N)=O)NC(=O)[C@H](Cc2c[nH]c3ccccc23)N(C)C(=O)[C@H](C(C)C)NC(=O)[C@H](Cc2cccc(Cl)c2)N(C)C(=O)[C@H](C(C)C)NC(=O)[C@H](C)NC(=O)CSC[C@@H](C(=O)N[C@H](CCC(=O)O)C(=O)NCC(=O)NCC(=O)NCC(=O)N[C@@H](CO)C(=O)N[C@@H](CO)C(=O)N[C@@H](CS)C(N)=O)NC(=O)[C@H](Cc2ccc(O)cc2)N(C)C(=O)[C@H](Cc2ccccc2)NC(=O)[C@@H](CCCNC(=N)N)NC(=O)[C@H](CCCNC(=N)N)NC(=O)[C@H]([C@@H](C)CC)NC1=O [compound 402] ({CH2CO}-AV[NMePhe(3-Cl)]V[NMeW]NYY(Me)IIR[dR]F[NMeY]C[dE]GGGSSC-NH2; thioether N-15)

Kd [4]: 1 to 100 nM
SMILES: CC[C@H](C)[C@@H]1NC(=O)[C@H](Cc2ccc(O)cc2)NC(=O)[C@H](Cc2ccc(O)cc2)NC(=O)[C@H](CC(N)=O)NC(=O)[C@H](Cc2c[nH]c3ccccc23)NC(=O)[C@H](C(C)C)NC(=O)[C@H](Cc2ccccc2)N(C)C(=O)[C@H](C(C)C)NC(=O)[C@H](C)NC(=O)CSC[C@@H](C(=O)NCCOCCOCCOCCOCCC(=O)NCCOCCOCCOCCOCCC(=O)NCCOCCOCCOCCOCCC(=O)N[C@@H](CCCCNC(=O)C2CCC(CN3C(=O)C=CC3=O)CC2)C(N)=O)NC(=O)[C@H](Cc2ccc(O)cc2)N(C)C(=O)[C@H](Cc2ccc(O)cc2)NC(=O)[C@H](CCCNC(=N)N)NC(=O)[C@H](CCCNC(=N)N)NC(=O)[C@H]([C@@H](C)CC)NC1=O (stereo partly shown) [compound 182]

Kd [2]: 1 to 100 nM
SMILES: CC[C@H](C)[C@@H]1NC(=O)[C@H](Cc2ccc(OC)cc2)NC(=O)[C@H](Cc2ccc(O)cc2)NC(=O)[C@H](CC(N)=O)NC(=O)[C@H](Cc2c[nH]c3ccccc23)N(C)C(=O)[C@H](C(C)C)NC(=O)[C@H](Cc2cccc(Cl)c2)N(C)C(=O)[C@H](C(C)C)NC(=O)[C@H](C)NC(=O)CSC[C@@H](C(=O)NCCOCCOCCOCCOCCC(N)=O)NC(=O)[C@H](Cc2ccc(O)cc2)N(C)C(=O)[C@H](Cc2ccccc2)NC(=O)[C@@H](CCCNC(=N)N)NC(=O)[C@H](CCCNC(=N)N)NC(=O)[C@H](CN)NC1=O [compound 336] ({CH2CO}-AV[NMePhe(3-Cl)]V[NMeW]NYY(Me)I[Dap]R[dR]F[NMeY]C[PEG4]-NH2; thioether N-15)

Kd [1]: 1 to 100 nM
SMILES: CC[C@H](C)[C@@H]1NC(=O)[C@H](Cc2ccc(O)cc2)NC(=O)[C@H](Cc2ccc(O)cc2)NC(=O)[C@H](CC(N)=O)NC(=O)[C@H](Cc2c[nH]c3ccccc23)NC(=O)[C@H](C(C)C)NC(=O)[C@H](Cc2ccc(OC)cc2)N(C)C(=O)[C@H](C(C)C)NC(=O)[C@H](C)NC(=O)CSC[C@@H](C(=O)NCCOCCOCCOCCOCCOCCOCCOCCOCCOCCOCCOCCOCCC(N)=O)NC(=O)[C@H](Cc2ccc(O)cc2)N(C)C(=O)[C@H](Cc2ccc(O)cc2)NC(=O)[C@H](CCCNC(=N)N)NC(=O)[C@H](CCCNC(=N)N)NC(=O)[C@H]([C@@H](C)CC)NC1=O [compound 136] ({CH2CO}-AV[NMeY](Me)VWNYYIIRRY[NMeY]C[PEG12]-NH2; thioether N-15)
